Our source for the EC50 values is US8822503B2, “2-pyridone compounds” (Taisho Pharmaceutical Co., Ltd, priority 2009, dated 2014).

pEC50: −log10 of the molar value.

This assay deals with T1, human liver GK (Homo sapiens, UniProt P35557).
T1 construct: GST (glutathione S-transferase) (N); made in house; host or cells: E. coli
T1 sequence (P35557 1-466 isoform P35557-2): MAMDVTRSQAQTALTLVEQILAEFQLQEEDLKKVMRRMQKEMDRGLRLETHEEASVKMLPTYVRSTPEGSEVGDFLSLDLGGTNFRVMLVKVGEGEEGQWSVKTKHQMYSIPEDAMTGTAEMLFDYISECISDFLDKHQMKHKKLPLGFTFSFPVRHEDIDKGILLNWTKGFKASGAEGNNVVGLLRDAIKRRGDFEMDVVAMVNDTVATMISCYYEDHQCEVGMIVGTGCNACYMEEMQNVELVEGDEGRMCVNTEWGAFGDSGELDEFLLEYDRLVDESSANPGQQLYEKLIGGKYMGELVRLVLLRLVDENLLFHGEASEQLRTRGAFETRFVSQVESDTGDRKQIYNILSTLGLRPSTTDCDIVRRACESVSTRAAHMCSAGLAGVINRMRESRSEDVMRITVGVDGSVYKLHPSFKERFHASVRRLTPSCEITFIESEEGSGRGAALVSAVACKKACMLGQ
Briefly: GK activation test. It is filed as biochemical. The settings on record: test compound concentration needed to activate 50% of maximum activation ability; 4 mM 14C-labeled glucose, 2 mM ATP, room temperature, 20 minutes. The procedure:
The GK activation test for the test compounds was performed by the method of Irwin A. Rose et al. (J. Biol. Chem. 1964 January; 239:12-7) with partial modifications.
The enzyme source used in this assay, human liver GK, was expressed in E. coli as a fusion protein with GST (glutathione S-transferase) added to the amino terminus and was purified using Glutathione Sepharose 4B (Amersham Biosciences).
The test was carried out using flat-bottom 96-well plates (Sumitomo Bakelite Co., Ltd.). A solution of the test compound in dimethyl sulfoxide (DMSO) and DMSO as a control were added to each well of the plates at a final DMSO concentration of 1%. 25 mM Hepes-KOH (pH=7.1), 25 mM KCl, 2 mM MgCl2, 2 mM ATP, 4 mM ^14C-labeled glucose (Muromachi Yakuhin) and 1 mM DTT (dithiothreitol) were further added at the indicated final concentrations, respectively. Finally, human liver GK was added at 0.24 microgram per well and the reaction was started. The reaction was carried out at room temperature.
After 20 minutes, AG1-X4 resin (BioRad) suspended in 25 mM Hepes-KOH (pH=7.1) was added and the reaction product, labeled glucose 6-phosphate, was allowed to bind thereto. The whole volume was transferred to MultiScreen plates (Millipore) and the resin was washed with water. Thereafter, the labeled glucose 6-phosphate binding to the resin was eluted with a 0.5 M NaCl solution. The labeling activity of the eluted labeled glucose 6-phosphate was measured as an index of GK activity.
The GK activity maximally activated by the test compound was described as maximum activation ability, and the test compound concentration needed to activate 50% of that ability was described as EC50.
As to `CC(C)(C)c1ccc(/C(=C\[C@H]2CCC(=O)N2)c2ccc(-c3ccncc3)c(=O)[nH]2)cc1` [Example 4-179, 6-{(E)-1-(4-tert-Butylphenyl)-2-[(2R)-5-oxopyrrolidin-2-yl]ethenyl}-3,4′-bipyridin-2(1H)-one], the negative logarithm of the EC50 (pEC50) (in general, the negative decadic logarithm of the EC50, by convention in mol/L) is 6.30 to 8.00.

Compound `CC(C)(C)c1ccc(C(C[C@H]2CCC(=O)N2)c2ccc(OC(F)F)c(=O)[nH]2)cc1` (single isomer, unassigned) [Example 4-247] had a negative-log EC50 (pEC50) of 5.00 to 5.52. The result for `Cc1cc(C(C[C@H]2CCC(=O)N2)c2ccc(C3CC3)c(=O)[nH]2)ccc1Cl` (single isomer, unassigned) [Example 4-214] reads 5.00 to 5.52; that for `O=C1CC[C@H](/C=C(\c2ccc(C(F)(F)F)cc2)c2ccc(C3CC3)c(=O)[nH]2)N1` [Example 4-99, 3-Cyclopropyl-6-{(E)-2-[(2R)-5-oxopyrrolidin-2-yl]-1-[4-(trifluoromethyl)phenyl]ethenyl}pyridin-2(1H)-one], 6.30 to 8.00; that for `O=c1[nH]c(C(Oc2ccc(F)cc2F)c2ccc(S(=O)(=O)C3CC3)cc2)ccc1C1CC1` (stereo not shown) [Example 7-3, 3-Cyclopropyl-6-[[4-(cyclopropylsulfonyl)phenyl](2,4-difluorophenoxy)methyl]pyridin-2(1H)-one], 6.30 to 8.00. In turn, `CC(C)c1ccc(/C(=C\C2CCOCC2)c2ccc(Cl)c(=O)[nH]2)cc1` [Example 1-109, 3-Chloro-6-[(E)-1-[4-(propan-2-yl)phenyl]-2-(tetrahydro-2H-pyran-4-yl)ethenyl]pyridin-2(1H)-one] gave a pEC50 of 5.52 to 6.30. Under `O=c1[nH]c(/C(=C/C2CCCC2)c2ccc(S(=O)(=O)C3CC3)cc2)ccc1Cl` [Example 1-104, 3-Chloro-6-{(E)-2-cyclopentyl-1-[4-(cyclopropylsulfonyl)phenyl]ethenyl}pyridin-2(1H)-one] stands 6.30 to 8.00.

The compound `CN1CCN(S(=O)(=O)c2ccc(C(CC3CCCC3)c3ccc(Cl)c(=O)[nH]3)cc2)CC1` (stereo not shown) [Example 2-24, 3-Chloro-6-(2-cyclopentyl-1-{4-[(4-methylpiperazin-1-yl)sulfonyl]phenyl}ethyl)pyridin-2(1H)-one] gave a pEC50 of 5.00 to 5.52.

`CCCCc1ccc(/C(=C\[C@H]2CCC(=O)N2)c2ccc(Cl)c(=O)[nH]2)cc1` [Example 4-17, 6-{(E)-1-(4-Butylphenyl)-2-[(2R)-5-oxopyrrolidin-2-yl]ethenyl}-3-chloropyridin-2(1H)-one]: the pEC50 is 6.30 to 8.00. Under `O=C1CC[C@H](CC(c2ccc(C3CC3)c(=O)[nH]2)c2ccc(C(F)(F)F)cc2F)N1` (single isomer, unassigned) [Example 4-332] stands 5.52 to 6.30. The result for `CCc1ccc(C(CC2CCCC2)c2ccc(S(=O)(=O)CCCO)cc2)[nH]c1=O` (stereo not shown) [Example 2-11, 6-(2-Cyclopentyl-1-{4-[(3-hydroxypropyl)sulfonyl]phenyl}ethyl)-3-ethylpyridin-2(1H)-one] reads 5.52 to 6.30; that for `O=C1CC[C@H](CC(c2ccc(C3CC3)cc2)c2ccc(Cl)c(=O)[nH]2)N1` (single isomer, unassigned) [Example 4-317], 5.52 to 6.30; that for `O=C1CC[C@H](/C=C(/c2ccc(C3CC3)c(=O)[nH]2)c2ccc(C(F)(F)F)cc2F)N1` [Example 4-267, 3-Cyclopropyl-6-{(E)-1-[2-fluoro-4-(trifluoromethyl)phenyl]-2-[(2R)-5-oxopyrrolidin-2-yl]ethenyl}pyridin-2(1H)-one], 6.30 to 8.00.

Consider `CCOc1ccc(C(C[C@H]2CCC(=O)N2)c2ccc(Cl)c(=O)[nH]2)cc1C(F)(F)F` (single isomer, unassigned) [Example 4-237], for which the pEC50 was 5.52 to 6.30. `CCc1ccc(/C(=C/[C@H]2CCC(=O)C2)c2ccc(S(=O)(=O)CCCO)c(Cl)c2)[nH]c1=O` [Example 1-76, 6-{(E)-1-{3-Chloro-4-[(3-hydroxypropyl)sulfonyl]phenyl}-2-[(1S)-3-oxocyclopentyl]ethenyl}-3-ethylpyridin-2(1H)-one] showed a negative-log EC50 (pEC50) of 6.30 to 8.00. Under `CCc1ccc(C(C[C@H]2CCC(=O)N2)c2ccc(C3CC3)c(=O)[nH]2)cc1Cl` (single isomer, unassigned) [Example 4-336] stands 6.30 to 8.00; under `COc1ccc(/C(=C\C2CCOCC2)c2ccc(C3CC3)c(=O)[nH]2)cc1Cl` [Example 1-53, 6-[(E)-1-(3-Chloro-4-methoxyphenyl)-2-(tetrahydro-2H-pyran-4-yl)ethenyl]-3-cyclopropylpyridin-2(1H)-one], 5.52 to 6.30.

Take `C[C@@H](/C=C(\c1ccc(S(=O)(=O)C2CC2)cc1)c1ccc(C(F)(F)F)c(=O)[nH]1)CO` [Example 1-101, 6-{(1E,3S)-1-[4-(Cyclopropylsulfonyl)phenyl]-4-hydroxy-3-methylbut-1-en-1-yl}-3-(trifluoromethyl)pyridin-2(1H)-one]: the negative logarithm of the EC50 (pEC50) is 5.00 to 5.52.

With `COc1ccc(C(C[C@H]2CCC(=O)N2)c2ccc(C(C)(C)C)cc2)[nH]c1=O` (single isomer, unassigned) [Example 4-245], the pEC50 was 5.00 to 5.52. The result for `Cc1cc(/C(=C\[C@H]2CCC(=O)N2)c2ccc(C3CC3)c(=O)[nH]2)ccc1C(F)(F)F` [Example 4-265, 3-Cyclopropyl-6-{(E)-1-[3-methyl-4-(trifluoromethyl)phenyl]-2-[(2R)-5-oxopyrrolidin-2-yl]ethenyl}pyridin-2(1H)-one] reads 6.30 to 8.00; that for `CC(C)Oc1ccc(C(C[C@H]2CCC(=O)N2)c2ccc(Cl)c(=O)[nH]2)cc1Cl` (single isomer, unassigned) [Example 4-296], 5.52 to 6.30. `COc1cc(C(C)(C)C)ccc1/C(=C\[C@H]1CCC(=O)N1)c1ccc(Cl)c(=O)[nH]1` [Example 4-148, 6-{(E)-1-(4-tert-Butyl-2-methoxyphenyl)-2-[(2R)-5-oxopyrrolidin-2-yl]ethenyl}-3-chloropyridin-2(1H)-one] gave a pEC50 of 5.52 to 6.30. The result for `CC(C)(C)c1ccc(/C(=C\Cn2cnccc2=O)c2ccc(Cl)c(=O)[nH]2)cc1` [Example 6-34, 3-[(2E)-3-(4-tert-Butylphenyl)-3-(5-chloro-6-oxo-1,6-dihydropyridin-2-yl)prop-2-en-1-yl]pyrimidin-4(3H)-one] reads 5.52 to 6.30; that for `CS(=O)(=O)c1ccc(/C(=C\[C@H]2CCC(=O)N2)c2ccc(C3CC3)c(=O)[nH]2)cn1` [Example 4-142, 3-Cyclopropyl-6-{(E)-1-[6-(methylsulfonyl)pyridin-3-yl]-2-[(2R)-5-oxopyrrolidin-2-yl]ethenyl}pyridin-2(1H)-one], 5.52 to 6.30; that for `CC(C)c1ccc(/C(=C\[C@H]2CCC(=O)N2)c2ccc(C3CC3)c(=O)[nH]2)cc1Cl` [Example 4-81, 6-{(E)-1-[3-Chloro-4-(propan-2-yl)phenyl]-2-[(2R)-5-oxopyrrolidin-2-yl]ethenyl}-3-cyclopropylpyridin-2(1H)-one], 6.30 to 8.00.

Compound `CC(C)(C)c1ccc(C(C[C@H]2CCN(C(=O)C3CC3)C2)c2ccc(Cl)c(=O)[nH]2)cc1` (single isomer, unassigned) [Example 4-96] gave a negative logarithm of the EC50 (pEC50) of 6.30 to 8.00. Under `CN(C)CCCCc1ccc(/C(=C/[C@H]2CCC(=O)N2)c2ccc(C(C)(C)C)cc2)[nH]c1=O` [Example 4-191, 6-{(E)-1-(4-tert-Butylphenyl)-2-[(2R)-5-oxopyrrolidin-2-yl]ethenyl}-3-[4-(dimethylamino)butyl]pyridin-2(1H)-one] stands 5.52 to 6.30; under `O=C1CC[C@H](/C=C(\c2ccc(OC3CCCC3)cc2)c2ccc(C3CC3)c(=O)[nH]2)N1` [Example 4-283, 6-{(E)-1-[4-(Cyclopentyloxy)phenyl]-2-[(2R)-5-oxopyrrolidin-2-yl]ethenyl}-3-cyclopropylpyridin-2(1H)-one], 6.30 to 8.00; under `CC(C)(C)c1ccc(C(C[C@@H]2CCC(=O)N2)c2ccc(Cl)c(=O)[nH]2)cc1` (single isomer, unassigned) [Example 4-76], 5.00 to 5.52. The result for `CC(C)(C)c1ccc(/C(=C\CCN2C(=O)CCC2=O)c2ccc(Cl)c(=O)[nH]2)cc1` [Example 6-13, 1-[(3E)-4-(4-tert-Butylphenyl)-4-(5-chloro-6-oxo-1,6-dihydropyridin-2-yl)but-3-en-1-yl]pyrrolidine-2,5-dione] reads 5.52 to 6.30; that for `Cc1ccc(/C(=C\[C@H]2CCC(=O)N2)c2ccc(Cl)c(=O)[nH]2)cc1` [Example 4-256, 3-Chloro-6-{(E)-1-(4-methylphenyl)-2-[(2R)-5-oxopyrrolidin-2-yl]ethenyl}pyridin-2(1H)-one], 5.52 to 6.30.
